This is an account of results in paper PMC4216211 (Journal of Medicinal Chemistry, 2014).

Broadly, the Ki is a measure of affinity in units of concentration, obtained from inhibition or displacement. As a reminder, the IC50 is the concentration needed to halve the response being measured.

One assay has as its target rat brain TSPO (Rattus norvegicus, UniProt P16257). The class given is binding. The conditions noted are these: for LipE: pKi (rat) minus clogD.
In a further assay the test system is TSPO in rat brain cortex. The conditions noted are these: read-out: IC50, inhibition of [3H]1; cited from earlier work.
Another assay has as its target human leukocyte LAB TSPO (Homo sapiens, UniProt P30536). The experiment in a line: Ligand binding affinity to human leukocyte LAB TSPO.
Another assay concerns the target human leukocyte HAB TSPO (Homo sapiens, UniProt P30536, T147A). The experiment in a line: Ligand binding affinity to human leukocyte HAB TSPO.
For assay [1], the system named is human leukocyte HAB and LAB TSPO. The experiment in a line: Human TSPO genotype sensitivity, Ki in LAB versus HAB leukocytes. Conditions: for (LAB Ki)/(HAB Ki): genotype sensitivity, ratio of Ki; for genotype sensitivity in words: LAB versus HAB TSPO. The class given is binding.

SMILES strings stand for the structures. “And” between values parts separate entries of the source, which are not always exact repeats. Identical values can stand only once.

rat brain TSPO, sequence (P16257 whole entry): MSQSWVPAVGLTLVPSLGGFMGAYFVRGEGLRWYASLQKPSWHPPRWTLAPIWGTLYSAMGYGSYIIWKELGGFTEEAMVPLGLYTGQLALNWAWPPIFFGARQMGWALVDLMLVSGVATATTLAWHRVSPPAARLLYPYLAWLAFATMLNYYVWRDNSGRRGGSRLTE
human leukocyte LAB TSPO, sequence (P30536 whole entry): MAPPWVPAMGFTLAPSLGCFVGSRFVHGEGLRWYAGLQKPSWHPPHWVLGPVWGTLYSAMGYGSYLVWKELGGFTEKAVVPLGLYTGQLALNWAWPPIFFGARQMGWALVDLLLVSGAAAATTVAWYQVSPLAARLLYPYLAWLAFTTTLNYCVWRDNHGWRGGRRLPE
human leukocyte HAB TSPO, sequence (P30536 whole entry T147A): as the sequence (P30536 whole entry) above, with T147A counted along it

Regarding `CCN(CC)C(=O)C(C)Cc1cc(-c2ccccc2)nc2ccccc12` (centres unmarked) [10a, N,N-Diethyl-2-methyl-3-(2-phenylquinolin-4-yl)propanamide], at rat brain TSPO, the affinity, expressed as Ki, was 2.1 ± 0.6 nM and the LipE came out at 4.4 ± 0.1. For the same molecule, the IC50 in the assay with TSPO in rat brain cortex is 13.7 nM.

Consider `CCCCN(C)C(=O)C(C)Cc1cc(-c2ccccc2)nc2ccccc12` (centres unmarked) [10h, N-butyl-N,2-dimethyl-3-(2-phenylquinolin-4-yl)propanamide], for which the inhibition constant Ki on rat brain TSPO amounted to 0.4 ± 0.2 nM; on human leukocyte LAB TSPO, 89 ± 3 nM; at human leukocyte HAB TSPO it was 1 ± 0.6 nM. Moreover, the LipE at rat brain TSPO came to 3.9 ± 0.2. In addition, the “(LAB Ki)/(HAB Ki)” value in assay [1] was found to be 89 ± 50.

As to `CC(Cc1cc(-c2ccccc2)nc2ccccc12)C(=O)N(C)C(C)C` (centres unmarked) [10j, N,2-dimethyl-3-(2-phenylquinolin-4-yl)-N-(propan-2-yl)propanamide], the results for the inhibitory constant (Ki) on rat brain TSPO, on human leukocyte LAB TSPO and on human leukocyte HAB TSPO were 2.9 ± 0.9 nM, 973 ± 409 nM and 15 ± 2 nM, respectively. At rat brain TSPO, the LipE is listed as 4.3 ± 0.1. Besides, in assay [1], the “(LAB Ki)/(HAB Ki)” value turned out to be 64 ± 28.

In the case of `CC(C)CN(C)C(=O)C(C)Cc1cc(-c2ccccc2)nc2ccccc12` (centres unmarked) [10l, N,2-dimethyl-N-(2-methylpropyl)-3-(2-phenylquinolin-4-yl)propanamide], the Ki is 5 ± 2 nM at rat brain TSPO, 185 ± 81 nM on human leukocyte LAB TSPO and 6 ± 2 nM on human leukocyte HAB TSPO. The LipE on rat brain TSPO came to 3.3 ± 0.1. In assay [1], the “(LAB Ki)/(HAB Ki)” value was found to be 32 ± 18.

On to `CC(Cc1cc(-c2ccccc2)nc2ccccc12)C(=O)N(C)c1ccccc1` (centres unmarked) [10m, N,2-dimethyl-N-phenyl-3-(2-phenylquinolin-4-yl)propanamide], for which the inhibition constant Ki at rat brain TSPO is 0.9 ± 0.2 nM; at human leukocyte LAB TSPO, 53 ± 22 nM; at human leukocyte HAB TSPO it was 1.9 ± 0.5 nM. In addition, the LipE at rat brain TSPO is 3.5 ± 0.1. The “(LAB Ki)/(HAB Ki)” value in assay [1] came to 27 ± 14.

On to `CC(Cc1cc(-c2ccccc2)nc2ccccc12)C(=O)N(C)c1ccccn1` (centres unmarked) [10o, N,2-dimethyl-3-(2-phenylquinolin-4-yl)-N-(pyridin-2-yl)propanamide], for which the inhibition constant (Ki) on rat brain TSPO is 1.6 ± 0.6 nM; on human leukocyte LAB TSPO, 119 ± 56 nM; at human leukocyte HAB TSPO, 4 ± 1 nM. The LipE on rat brain TSPO is recorded as 3.6 ± 0.2. Further, in assay [1], the “(LAB Ki)/(HAB Ki)” value came to 30 ± 18.

As to `CC(Oc1cc(-c2ccccc2)nc2ccccc12)C(=O)N(C)c1ccccc1` (centres unmarked) [15a, N-Methyl-N-phenyl-2-[(2-phenylquinolin-4-yl)oxy]propanamide], the Ki was found to be 0.07 ± 0.004 nM at rat brain TSPO, 1.3 ± 0.2 nM on human leukocyte LAB TSPO and 0.5 ± 0.2 nM on human leukocyte HAB TSPO. At rat brain TSPO, the LipE is 5.42 ± 0.03. The “(LAB Ki)/(HAB Ki)” value in assay [1] was 2.5 and 2.5 ± 0.9.

In the case of `CC(Oc1ccnc2ccccc12)C(=O)N(C)c1ccccc1` (centres unmarked) [15b, N-methyl-N-phenyl-2-(quinolin-4-yloxy)propanamide], at rat brain TSPO, the inhibition constant (Ki) was found to be 5.7 ± 0.5 nM, the “rat TSPO affinity in words” value is “low nanomolar range” and the LipE came to 5.29 ± 0.04. Besides, affinity on human leukocyte LAB TSPO was put at a Ki of 66 ± 22 nM. For the same molecule, at human leukocyte HAB TSPO, the “HAB binding affinity in words” value is “low nanomolar” and the Ki came out at 3.3 ± 0.9 nM. Moreover, in assay [1], the “(LAB Ki)/(HAB Ki)” value worked out at 20 ± 9.

For the molecule `CC(Oc1ccnc(-c2ccccc2)c1)C(=O)N(C)c1ccccc1` (centres unmarked) [15c, N-methyl-N-phenyl-2-[(2-phenylpyridin-4-yl)oxy]propanamide], at rat brain TSPO, the Ki was 3.3 ± 0.6 nM, the “rat TSPO affinity in words” value was “low nanomolar range” and the LipE was 5.3 ± 0.3. Further, on human leukocyte LAB TSPO, the affinity corresponds to a Ki of 62 ± 11 nM. For the same molecule, on human leukocyte HAB TSPO, the “HAB binding affinity in words” value is “low nanomolar” and the inhibitory constant (Ki) stood at 2 ± 0.6 nM. Further, the “(LAB Ki)/(HAB Ki)” value in assay [1] was found to be 31 ± 11.

For `CC(Oc1cc(-c2ccccn2)nc2ccccc12)C(=O)N(C)c1ccccc1` (centres unmarked) [22a, N-Methyl-N-phenyl-2-{[2-(pyridin-2-yl)quinolin-4-yl]oxy}propanamide], the Ki was determined as 0.1 ± 0.05 nM at rat brain TSPO; 1.4 ± 0.5 nM at human leukocyte LAB TSPO; 1.4 ± 0.2 nM on human leukocyte HAB TSPO; 1.4 nM in assay [1] (read-out: human TSPO genotypes Ki, abstract, one value for the human genotypes). This molecule came in with a LipE at rat brain TSPO of 5.9 ± 0.2. Moreover, the “genotype sensitivity in words” value in assay [1] is listed as “insensitive”. Besides, in assay [1], the “(LAB Ki)/(HAB Ki)” value was 1.0 ± 0.4.

For the molecule `CC(Oc1cc(-c2cccnc2)nc2ccccc12)C(=O)N(C)c1ccccc1` (centres unmarked) [22b, N-methyl-N-phenyl-2-{[2-(pyridin-3-yl)quinolin-4-yl]oxy}propanamide], at rat brain TSPO, the affinity corresponds to a Ki of 0.2 ± 0.03 nM, the “rat TSPO affinity in words” value is reported as “subnanomolar” and the LipE was found to be 5.6 ± 0.1. In addition, affinity on human leukocyte LAB TSPO was put at a Ki of 12 ± 3 nM. Further, the Ki at human leukocyte HAB TSPO is 0.9 ± 0.09 nM. The “(LAB Ki)/(HAB Ki)” value in assay [1] is 13 ± 4.

On rat brain TSPO, `CC(Oc1cc(-c2ccncc2)nc2ccccc12)C(=O)N(C)c1ccccc1` (centres unmarked) [22c, N-methyl-N-phenyl-2-{[2-(pyridin-4-yl)quinolin-4-yl]oxy}propanamide] gave an inhibition constant Ki of 0.22 ± 0.02 nM and a LipE of 5.60 ± 0.04. Also, the affinity on human leukocyte LAB TSPO corresponds to a Ki of 7 ± 3 nM. The same molecule registered a Ki on human leukocyte HAB TSPO of 1 ± 0.5 nM. Besides, in assay [1], the “genotype sensitivity in words” value is listed as “much less sensitive” and the “(LAB Ki)/(HAB Ki)” value was determined as 7 ± 5.

At rat brain TSPO, `CCN(CC)C(=O)[C@H](C)Cc1cc(-c2ccccc2)nc2ccccc12` [(R)-10a, (R)-N,N-Diethyl-2-methyl-3-(2-phenylquinolin-4-yl)propanamide] came in with an inhibition constant (Ki) of 0.9 ± 0.09 nM and a LipE of 4.72 ± 0.04. Moreover, on human leukocyte LAB TSPO, the affinity, expressed as Ki, was 743 ± 190 nM. Also, at human leukocyte HAB TSPO, the affinity corresponds to a Ki of 10 ± 2 nM and the “fold lower affinity to HAB TSPO than to rat TSPO” value is given as “about 10 -fold”. Besides, in assay [1], the “fold lower affinity for LAB TSPO than for HAB TSPO” value is given as “about 76 -fold” and the “(LAB Ki)/(HAB Ki)” value stood at 76 ± 27.

On rat brain TSPO, `CCN(CC)C(=O)[C@@H](C)Cc1cc(-c2ccccc2)nc2ccccc12` [(S)-10a, (S)-N,N-Diethyl-2-methyl-3-(2-phenylquinolin-4-yl)propanamide] showed an inhibition constant Ki of 73 ± 36 nM and a LipE of 2.9 ± 0.1.

Turning to `CCC(C)N(C)C(=O)c1cc2ccccc2c(-c2ccccc2Cl)n1` (centres unmarked) [compound 1, 1-(2-chlorophenyl)-N-methyl-N-(1-methylpropyl)-3-isoquinolinecarboxamide, reference compound], the “genotype sensitivity in words” value in assay [1] is given as “low genotype sensitivity”.

On to `CC(Sc1cc(-c2ccccc2)nc2ccccc12)C(=O)N(C)c1ccccc1` (centres unmarked) [compound 12, N-Methyl-N-phenyl-2-[(2-phenylquinolin-4-yl)sulfanyl]propanamide], for which the inhibition constant Ki worked out at 0.39 ± 0.04 nM on rat brain TSPO, 26 ± 5 nM at human leukocyte LAB TSPO and 2.5 ± 0.6 nM on human leukocyte HAB TSPO. This molecule also registered a LipE at rat brain TSPO of 4.10 ± 0.05. In addition, the “(LAB Ki)/(HAB Ki)” value in assay [1] is listed as 10 ± 3.

For the molecule `CC(Nc1cc(-c2ccccc2)nc2ccccc12)C(=O)N(C)c1ccccc1` (centres unmarked) [compound 14, N-Methyl-N-phenyl-2-[(2-phenylquinolin-4-yl)amino]propanamide], the Ki at rat brain TSPO was 0.19 ± 0.01 nM; on human leukocyte LAB TSPO it was 4 ± 1 nM; on human leukocyte HAB TSPO, 0.44 ± 0.08 nM. On rat brain TSPO, this molecule displayed a LipE of 5.62 ± 0.03. In assay [1], the “(LAB Ki)/(HAB Ki)” value stood at 9 ± 3.
